The record followed here is ChEMBL document CHEMBL1133799, “A disubstituted NAD+ analogue is a nanomolar inhibitor of trypanosomal glyceraldehyde-3-phosphate dehydrogenase” (Bioorg Med Chem Lett, 2001).

In data set [1] the test system is COc1cccc(C(=O)N[C@@H]2[C@H](O)[C@@H](CO)O[C@H]2n2cnc3c(NCc4cccc5ccccc45)ncnc32)c1.
Description: Binding affinity for NAD- in human glyceraldehyde-3-phosphate dehydrogenase (GAPDH)

Sequence of Glyceraldehyde-3-phosphate dehydrogenase (Homo sapiens), P04406 (P04406 whole entry): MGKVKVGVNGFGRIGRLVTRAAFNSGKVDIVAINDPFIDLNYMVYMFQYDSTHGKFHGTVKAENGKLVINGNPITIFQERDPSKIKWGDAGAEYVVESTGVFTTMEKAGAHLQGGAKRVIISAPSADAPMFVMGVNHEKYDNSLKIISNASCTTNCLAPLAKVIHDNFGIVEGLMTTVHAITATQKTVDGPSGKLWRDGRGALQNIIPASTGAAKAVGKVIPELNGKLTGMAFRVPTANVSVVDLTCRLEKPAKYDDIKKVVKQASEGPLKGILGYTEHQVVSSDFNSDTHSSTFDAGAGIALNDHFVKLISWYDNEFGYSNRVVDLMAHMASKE
Description for Trypanosoma: Binding affinity for NAD- in trypanosomal glyceraldehyde-3-phosphate dehydrogenase (GAPDH)

Regarding `COc1cccc(C(=O)N[C@@H]2[C@H](O)[C@@H](CO)O[C@H]2n2cnc3c(NCc4cccc5ccccc45)ncnc32)c1`, in the data set with Trypanosoma, the Km amounted to 0.45 µM.

Regarding “Glyceraldehyde-3-phosphate dehydrogenase (Homo sapiens), P04406”, the Km in data set [1] stood at 0.04 µM.

The term Km denotes the substrate concentration at which the rate is half of its maximum.
